Our source for the melting point values is a melting point compilation (Tetko et al.; mined from patent text by program, amines drawn as free bases though some values may be those of a salt).

Some results are limits rather than exact numbers.

For orientation: melting point means the temperature of the solid-liquid transition. Compound `O=c1c2ccccc2oc2cccnc12` returned a melting point of 184 to 185 °C. For `CCOC(=O)CC(C(=O)c1ccc(Cl)cc1)C(=O)c1ccc(Cl)cc1` the value was 108 °C.

`COC(=O)C[C@@H]1C[C@@H](COc2ccc(-c3ccc(C#N)cc3)cc2N)N(CCCc2ccccc2)C1=O`: the melting point was 111 to 112 °C.

With `CC(=O)C1=CCC2C3CCC4CC=CCC4(C)C3CCC12C` (stereo unspecified), the melting point was in the range of 143 to 145 °C.

`CCCc1c(OCCCOc2ccccc2)ccc2c1OC(CCC(=O)O)(CCC(=O)O)CC2=O` gave a melting point of 162 °C.

Compound `CCCC(CCC)Nc1nc(C)nc(Oc2c(Br)cc(C(C)(C)O)cc2OC)c1[N+](=O)[O-]` yielded a melting point of 119 to 120 °C.

`O=C(O)/C=C/c1ccc(N2CCC3(CC2)OCCO3)cc1` came in with a melting point of 221 to 222 °C. For `COC(=O)c1ccc2c(=O)n(CC(C)C)c(CNC(=O)OC(C)(C)C)c(-c3ccc(C)cc3)c2c1` the value was 193 to 194 °C; for `O=c1n(CCCN2CCC(n3c(=O)[nH]c4ccccc43)CC2)nc2n1-c1ccccc1OC2`, 176 to 178 °C; for `Nc1cc(-c2ccccc2)n(-c2ccc(S(N)(=O)=O)cc2)n1`, 286 to 290 °C. For `O=C1c2nccnc2C(Cl)N1c1ccc2ccc(Cl)nc2n1` (stereo unspecified) the value was 264 °C. As for `CC(=O)OCCN1C(=O)CN2CCOC2(c2ccccc2F)c2cc(Cl)ccc21` (stereo unspecified), the figure is 120 to 123 °C; as for `COc1ccc(N2CCOCC2)c2sc(-c3nc4ccc(N(C)CC5CCOCC5)nc4[nH]3)nc12`, 190 to 195 °C; as for `Cc1ccc2c(c1)c(Cl)c(C#N)c(=O)n2Cc1ccccc1`, 219 °C. In turn, `COc1cc(C(F)(F)F)cc(OC)c1-c1csc(NC(=O)c2cc3ccccc3n2CC(=O)OC(C)(C)C)n1` had a melting point of 214 to 216 °C. As for `Cc1sc(N)c(C(=O)c2cccc(C(F)(F)F)c2)c1C`, the figure is 103 to 105 °C. For `COc1cccc(C(=O)N(C(=O)OCCl)N(C(=O)c2cc(C)cc(C)c2)C(C)(C)C)c1C` the value was 117 to 119 °C; for `Cc1ccc(C(O)c2nc3c(cc2C)CCCCC3)cc1` (stereo unspecified), 143 to 145 °C. For `CNc1nc(C)cc(-n2ccc3ccccc32)n1` the value was 160 to 162 °C. For `COC(=O)C(NS(=O)(=O)c1ccc(-c2ccc(NC(=O)c3oc4cccc(CO[Si](C)(C)C(C)(C)C)c4c3C)cc2)cc1)C(C)C` (stereo unspecified), the melting point is 204 to 206 °C. With `O=C(NO)OCC1c2ccccc2-c2ccccc21`, the melting point amounted to 160 °C. As for `O=C(CCC(=O)N1CCC(c2ccc(Cl)cc2)CC1)c1ccc2c(c1)CNCC2`, the figure is 121 to 122 °C. `CC1c2ccccc2-c2ccc(F)cc2N1S(=O)(=O)c1ccc(O)cc1` (stereo unspecified) yielded a melting point of 162 to 165 °C.

`CC(C)c1ccc(S(=O)(=O)n2c(CO)cc3cc(C(F)(F)F)ccc32)cc1` returned a melting point of 112 °C. As for `C=C1CC(COc2cccc3ccc(C)nc23)(c2ccc(Cl)cc2)OC1=O` (stereo unspecified), the melting point lay in the range of 129 to 130 °C.

In turn, `COc1cc2oc(=O)c(CCN3CCN(c4ccccc4OC)CC3)c(C)c2cc1OC(C)C` returned a melting point of 123 to 125 °C.

For `O=C(NCCCl)Nc1ccc2cn[nH]c2c1`, the melting point fell in the range of 253 to 258 °C. For `c1ccc2nc(COc3ccc(CCc4ccc(-c5nnn[nH]5)cc4)cc3)ccc2c1`, the melting point was 203 to 206 °C. As for `Cc1oc(-c2ccccc2)nc1CCc1nc(CCl)co1`, the figure is 71 to 72 °C; as for `COc1cc(OC)c(NC(=S)Nc2ccccc2)cc1O`, 152 to 154 °C; as for `O=C1C=CC=C2C=CC=C12`, 70 to 71 °C.

`CN1CCCCC1CCCc1ccccc1NC(=O)C=Cc1ccccc1` (stereo unspecified) registered a melting point of 130 to 132 °C. For `COc1ccc2c(c1)OC(CNCCCOc1cnc3ccccc3c1)CC2` (stereo unspecified) the value was 132 to 134 °C; for `Cn1c(C(F)(F)F)c(C#N)c2ccc(Cl)cc21`, 142 to 145 °C; for `CCn1cnc2cc(C(F)(F)F)c(Cl)c(N)c21`, 192 to 193 °C. Compound `CCCCc1oc2ccccc2c1C(=O)NCc1ccc2c(-c3ccc(C)cc3)c(O)ccc2c1` had a melting point of 103 to 105 °C. For `CC(C)(C)c1cc(OCC(N)=S)cc(C(C)(C)C)c1O` the value was 163 to 164 °C; for `CCOc1c(C(N)=O)cnc2c(NC(=O)c3c(Cl)cccc3Cl)cccc12`, 242 to 245 °C; for `COc1ccc(N=Cc2cc(OC)c(OC)c(OC)c2)cc1`, 78 to 86 °C. As for `COc1ccc(C(=O)Cl)cc1C12CC3CC(CC(C3)C1)C2`, the figure is 153 to 154 °C. For `FC(F)(F)Cn1cc(C#Cc2cccc(OCC3CC3)c2)cn1` the value was 63 to 65 °C; for `CCCN1CCn2c(=O)[nH]c3cccc(c32)C1C` (stereo unspecified), 124 °C; for `CCCCCCNC(=O)Oc1ccc2c(c1)N(Cc1ccccc1)CCC2`, 85 °C. Compound `C[C@@H]1CN(Cc2ccc(F)cc2)CCN1C(=O)/C=C/c1ccc(Cl)cc1NC(=O)N1CCNC1=O` had a melting point of 275 to 277 °C.

With `Cc1cc(C)cc(P(=O)(c2cc(C)cc(C)c2)c2ccc3ccccc3c2-c2c(P(=O)(c3cc(C)cc(C)c3)c3cc(C)cc(C)c3)ccc3ccccc23)c1`, the melting point fell in the range of 287 to 290 °C.

Turning to `COC(=O)CCN=c1sc2ccccc2s1`, the melting point lay in the range of 58 to 60 °C. `N=C(N)NCCCCCOc1cccc2c1NC(=O)C(CC(=O)O)C2` (stereo unspecified) yielded a melting point of 126 to 131 °C. As for `COc1ccc(C=CC(=O)C=Cc2ccccc2)cc1`, the figure is 85 to 89 °C. As for `CC(C)Cc1cc(-c2cccc(C=O)c2)c(S(=O)(=O)NC(C)(C)C)s1`, the figure is 96 to 98 °C. `COc1ccc(CC(=O)N(Cc2ccc(C)cc2)C2CCN(CC3CCCCC3)CC2)cc1` showed a melting point of 133 to 135 °C. For `Cc1cccc(-c2cc(F)c3c(c2)CC(CN)O3)c1` (stereo unspecified) the value was over 250 °C. For `CO/C=C1/C(=O)NC(=O)c2ccc(I)cc21` the value was 120 to 121 °C; for `CCS(=O)(=O)Nc1cc(N=C=S)c(F)cc1Cl`, 104 to 105 °C; for `COC(=O)C(C)(C)Cc1ccc(CC(C)(C)C(=O)OC)cc1`, 74 to 76 °C. Consider `COc1ccc2cc(C(C)C(=O)N3CSCC3C(=O)O)ccc2c1` (stereo unspecified), for which the melting point is 165 to 168 °C. Take `CCOC(=O)C(Cc1ccc(CN(CC)CC)cc1)NC(=O)OC(C)(C)C` (stereo unspecified): the melting point was 56 °C. As for `CC(C)C(=O)c1ccc2cc(O)c(O)cc2c1`, the figure is 154 to 156 °C; as for `CCCCc1cn(-c2cccn2CC)c(=O)n1Cc1ccc(-c2ccccc2-c2nnn[nH]2)nc1`, 174 to 175 °C; as for `COc1ccc(C(O)c2cccc3c2ccn3S(=O)(=O)c2ccc(C)cc2)cc1` (stereo unspecified), 90 °C.

Compound `CCn1c(=O)c2[nH]c(C(C)C)nc2n(Cc2ccc3c(c2)OCO3)c1=O` displayed a melting point of 200 to 232 °C. On to `Cc1ccc2c(c1)Oc1cscc1C(=O)N2`, for which the melting point lay within 209 to 216 °C.

As to `OCC1OC(n2c(Cl)nc3c(Br)c(Br)c(Br)cc32)C(O)C1O` (stereo unspecified), the melting point lay within 168 to 170 °C. For `CC(=O)OCCOC(=O)C1=C(C)Nc2nc(N3CCOCC3)nc(N3CCOCC3)c2C1c1cccnc1` (stereo unspecified) the value was 170 °C; for `O=C(O)Cn1c(=O)c(=O)[nH]c2cc([N+](=O)[O-])c(-n3ccc(CN4CCC(c5ccccc5)CC4)c3)cc21`, over 210 °C. As for `COc1cc(C(=O)c2ccnc3ccccc23)cc([N+](=O)[O-])c1O`, the figure is 246 to 248 °C; as for `O=S(=O)(c1nc(-c2ccccc2)c(-c2ccccc2)n1COCc1ccccc1)C(F)(F)C(F)F`, 97.5 to 98.5 °C. As for `CN(c1ccc(C(=O)O)cc1)c1cc2c3c(c1)CCCC3CCC2`, the figure is 288 to 289 °C. As to `COc1cc(CC(=O)NCCOc2ccc(C)c(C)c2)ccc1OCCN`, the melting point is 95 to 97 °C. For `CC(Cc1ccccc1)(C(=NC#N)NCCc1ccccc1)c1ccccn1` (stereo unspecified) the value was 162 to 164 °C; for `FC(F)C(F)(F)Oc1ccc(C=NNc2nc(Nc3ccc(OC(F)(F)F)cc3)nc(N3CCOCC3)n2)cc1`, 203 to 206 °C. As for `CCOC(=O)c1ccc(N(C)C)cc1C(=O)OCC`, the figure is 62 to 64 °C; as for `C=C1CC(COc2cccc3cccnc23)(c2ccc(Cl)cc2)OC1=O` (stereo unspecified), 107 to 108 °C.

As for `Fc1cc(F)c2c(c1)C(n1cc[nH]c1=S)CC2` (single isomer, unassigned; (+)), the melting point was in the range of 191 to 193 °C.

Turning to `c1ccc2c(c1)C[C@H]1CSC(=Nc3cc[nH]n3)N1C2`, the melting point came out at 161 °C. Compound `CCCCCCCCCCN1C(=O)OC2(CCNCC2)C1(C)O` (stereo unspecified) returned a melting point of 139 to 140 °C. As for `O=C(O)c1c(F)c(F)cc([N+](=O)[O-])c1F`, the figure is 98 to 99 °C; as for `ClCc1nccn1Cc1ccccc1`, 180 to 182 °C; as for `COC(=O)CS(=O)Cc1cccc(-c2nc(=O)c3ccccc3s2)n1` (stereo unspecified), 150 to 151 °C. As for `CCN(CC)C(=O)N(C1CCCCC1)C1CCN(C(=O)C(Cc2ccc(Cl)cc2)NC2CCNCC2)CC1` (stereo unspecified), the figure is over 220 °C; as for `COCCOCn1cc(C(=O)NCc2ccc(Cl)cc2)c(=O)c2cc(CN3CCOCC3)ccc21`, 150 to 152 °C; as for `Cc1ccc(S(=O)(=O)NC(=O)N2C(=O)C(c3ccccc3)N2C(c2ccccc2)c2ccccc2)cc1` (stereo unspecified), 154 to 156 °C. As for `Cc1c(-c2ccc(NC(=O)C(C)C)cc2)sc2c1c(=O)c(C(=O)C(C)C)cn2Cc1c(F)cccc1F`, the figure is 219 to 222 °C; as for `COC(=O)C(C)(C)C(Cc1ccc(OC)cc1)N(C)S(=O)(=O)c1ccc(C)cc1` (stereo unspecified), 132 to 134 °C; as for `COC(=N)N1CCC(c2n[nH]c3cc(F)ccc23)CC1`, 162 to 164 °C. `O=C(OCc1ccccc1)N1CCc2c(sc3nc(CN4C(=O)CCC4=O)c(Cl)c(-c4ccc(OCc5ccccc5)cc4)c23)C1` had a melting point of 238 to 239 °C. Compound `COC(=O)C(C)(C)CC(=O)c1ccc(-n2ccnc2)cc1` showed a melting point of 89 to 93 °C.
